From paper PMC10762035, “Molecular basis of human trace amine-associated receptor 1 activation” (Nature Communications, 2024)
Where a chain is given by its changes, count along the chain named. “And” between values parts separate entries of the source, which are not always exact repeats. Equal entries are not always repeated. Where two headings read alike, the source gives them in different places.

Legend:
Type in all cases: cell-based
[1] = molecular target: T1, hTA1 b2N (Homo sapiens, UniProt Q96RJ0); assay: GloSensor cAMP accumulation assay, b2N construct; conditions: b2N, n=2
T1 construct: read by me as the first 25 residues of β2AR (N); expressed in transfected cells; host or cells: HEK293T
T1 sequence (Q96RJ0 with tags, fused parts or gaps): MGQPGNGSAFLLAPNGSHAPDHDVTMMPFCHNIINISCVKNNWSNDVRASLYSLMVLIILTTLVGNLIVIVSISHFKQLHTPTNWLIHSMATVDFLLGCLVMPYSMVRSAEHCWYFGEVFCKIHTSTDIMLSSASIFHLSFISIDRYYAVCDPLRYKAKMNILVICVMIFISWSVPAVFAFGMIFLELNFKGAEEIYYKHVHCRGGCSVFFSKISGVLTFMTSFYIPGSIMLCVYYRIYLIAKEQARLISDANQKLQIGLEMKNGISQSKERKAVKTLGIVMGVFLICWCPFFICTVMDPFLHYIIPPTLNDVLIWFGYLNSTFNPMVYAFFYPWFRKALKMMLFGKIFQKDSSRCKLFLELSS

[2] = molecular target: T2, hTA1 (Homo sapiens, UniProt Q96RJ0); assay: GloSensor cAMP accumulation assay, concentration response, wild-type hTA1 in transfected HEK293T cells; conditions: for Emax: HEK-293T; for Dose-response curves for asenapine vs endogenous trace amines / Normalized Luminescence Counts for WT hTA1: log[Compound]; for Dose-response curves for asenapine vs endogenous trace amines: replicate values (N=2); for Normalized Luminescence Counts for WT hTA1: replicate wells;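 on all read-outs here: luminescence read after 30 min compound exposure at room temperature in cells preloaded with D-Luciferin, reflecting Gs-driven cAMP rise, efficacy scaled to the maximal β-PEA response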
T2 construct: expressed in transfected cells; host or cells: HEK293T
T2 sequence (Q96RJ0 1-339): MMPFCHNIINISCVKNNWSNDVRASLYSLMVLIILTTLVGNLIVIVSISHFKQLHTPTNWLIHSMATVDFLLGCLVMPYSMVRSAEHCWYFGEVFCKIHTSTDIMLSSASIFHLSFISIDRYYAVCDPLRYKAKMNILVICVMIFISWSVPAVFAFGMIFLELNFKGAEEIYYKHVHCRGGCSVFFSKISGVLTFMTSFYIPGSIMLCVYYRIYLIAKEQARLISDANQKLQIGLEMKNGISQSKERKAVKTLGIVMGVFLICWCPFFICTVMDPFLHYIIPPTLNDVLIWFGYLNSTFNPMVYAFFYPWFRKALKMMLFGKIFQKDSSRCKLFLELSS

[3] = molecular target: T3, hTA1 T271N (Homo sapiens, UniProt Q96RJ0, T271N); assay: GloSensor cAMP accumulation assay, T271N mutant
T3 construct: expressed in transfected cells; host or cells: HEK293T
T3 sequence (Q96RJ0 1-339 T271N): T2 sequence (Q96RJ0 1-339) with T271N

[4] = molecular target: T4, hTA1 I290Y (Homo sapiens, UniProt Q96RJ0, I290Y); assay: GloSensor cAMP accumulation assay, I290Y mutant; conditions: for Normalized Luminescence Counts for Concentration Response Curves: I120Y, log[Agonist], single replicates
T4 construct: expressed in transfected cells; host or cells: HEK293T
T4 sequence (Q96RJ0 1-339 I290Y): T2 sequence (Q96RJ0 1-339) with I290Y

[5] = molecular target: T5, hTA1 C13S (Homo sapiens, UniProt Q96RJ0, C13S); assay: GloSensor cAMP accumulation assay, C13S mutant; conditions: C13S, n=2
T5 construct: expressed in transfected cells; host or cells: HEK293T
T5 sequence (Q96RJ0 1-339 C13S): T2 sequence (Q96RJ0 1-339) with C13S

[6] = molecular target: T6, hTA1 S107C (Homo sapiens, UniProt Q96RJ0, S107C); assay: GloSensor cAMP accumulation assay, S107C mutant; conditions: S107C;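 further: cells transiently co-expressing receptor and GloSensor biosensor, luminescence read after 30 min agonist exposure at room temperature, concentration-response fitted by nonlinear regression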
T6 construct: expressed in transfected cells; host or cells: HEK293T
T6 sequence (Q96RJ0 1-339 S107C): T2 sequence (Q96RJ0 1-339) with S107C

[7] = read-out: Span ± SEM (Emax normalized to β-PEA)

Structure (SMILES): CN1CC2c3ccccc3Oc3ccc(Cl)cc3C2C1 (stereo not shown) [asenapine]
- EC50 ([1]; read-out: EC50): 72.8 nM
- Emax [1, 7]: 97.39 ± 0.96%
- Emax ([2]; WT, Avg of the experiment means, read-out: Emax values, Avg): 88.7%
- Emax ([2]; WT, Mean of one experiment (3 replicates), read-out: Emax values): 91%
- Emax ([2]; wt hTA1, relative to β-PEA, read-out: Emax): 88.7%
- Emax values, Avg ([2]; WT, Asenapine, average of the two experiments): 88.71
- Emax values, Mean ([2]; WT, Asenapine, mean of one experiment, 3 replicates): 91.0389 and 86.3756
- Emax values ([2]; WT, Mean of one experiment (3 replicates)): 86.3756
- EC50 ([2]; WT, Mean of one experiment (3 replicates), read-out: pEC50 values (converted)): 279 nM
- Dose-response curves for asenapine vs endogenous trace amines ([2]; M = -5): 79.6771 and 96.2124 and 92.251 and 83.6538 and 87.8328 and 80.7895
- Normalized Luminescence Counts for WT hTA1 ([2]; M = -5): 83.6538 and 87.8328 and 80.7895 and 79.6771 and 96.2124 and 92.251
- Dose-response curves for asenapine vs endogenous trace amines ([2]; M = -5.522): 74.87 and 93.5418 and 84.1725 and 79.0052 and 76.9861 and 71.9618
- Normalized Luminescence Counts for WT hTA1 ([2]; M = -5.522): 79.0052 and 76.9861 and 71.9618 and 74.87 and 93.5418 and 84.1725
- Dose-response curves for asenapine vs endogenous trace amines ([2]; M = -6): 68.5274 and 68.3939 and 69.9517 and 72.9948 and 71.8209 and 62.9463
- Normalized Luminescence Counts for WT hTA1 ([2]; M = -6): 72.9948 and 71.8209 and 62.9463 and 68.5274 and 68.3939 and 69.9517
- Dose-response curves for asenapine vs endogenous trace amines ([2]; M = -6.522): 47.5189 and 49.5663 and 40.1525 and 38.2946 and 48.7657 and 45.4788
- Normalized Luminescence Counts for WT hTA1 ([2]; M = -6.522): 38.2946 and 48.7657 and 45.4788 and 47.5189 and 49.5663 and 40.1525
- Dose-response curves for asenapine vs endogenous trace amines ([2]; M = -7): 27.8234 and 34.8114 and 20.9244 and 18.9489 and 23.9262 and 21.7193
- Normalized Luminescence Counts for WT hTA1 ([2]; M = -7): 18.9489 and 23.9262 and 21.7193 and 27.8234 and 34.8114 and 20.9244
- Dose-response curves for asenapine vs endogenous trace amines ([2]; M = -7.522): 9.085 and 11.3326 and 6.214 and 4.299 and 6.271 and 7.5856
- Normalized Luminescence Counts for WT hTA1 ([2]; M = -7.522): 4.299 and 6.271 and 7.5856 and 9.085 and 11.3326 and 6.214
- Dose-response curves for asenapine vs endogenous trace amines ([2]; M = -8): 5.413 and 6.147 and 6.2585 and 3.876 and 4.862 and 2.139
- Normalized Luminescence Counts for WT hTA1 ([2]; M = -8): 3.876 and 4.862 and 2.139 and 5.413 and 6.147 and 6.2585
- Dose-response curves for asenapine vs endogenous trace amines ([2]; M = -8.522): 0.6725 and 1.273 and 1.229 and 1.059 and 0.777 and -0.209
- Normalized Luminescence Counts for WT hTA1 ([2]; M = -8.522): 1.059 and 0.777 and -0.209 and 0.6725 and 1.273 and 1.229
- Dose-response curves for asenapine vs endogenous trace amines ([2]; M = -9): -0.2399 and 0.5835 and -0.9298 and -0.4438 and -0.06817 and 0.0727
- Normalized Luminescence Counts for WT hTA1 ([2]; M = -9): -0.4438 and -0.06817 and 0.0727 and -0.2399 and 0.5835 and -0.9298
- Dose-response curves for asenapine vs endogenous trace amines ([2]; M = -9.522): -1.597 and -0.5292 and -1.353 and -0.209 and -0.5377 and 0.777
- Normalized Luminescence Counts for WT hTA1 ([2]; M = -9.522): -0.209 and -0.5377 and 0.777 and -1.597 and -0.5292 and -1.353
- Dose-response curves for asenapine vs endogenous trace amines ([2]; M = -10): -0.6182 and -0.1064 and -0.8408 and -0.7725 and -0.5377 and -0.6786
- Normalized Luminescence Counts for WT hTA1 ([2]; M = -10): -0.7725 and -0.5377 and -0.6786 and -0.6182 and -0.1064 and -0.8408
- Dose-response curves for asenapine vs endogenous trace amines ([2]; M = -10.522): -0.9521 and -0.1509 and -1.197 and -0.8195 and -1.665 and -1.101
- Normalized Luminescence Counts for WT hTA1 ([2]; M = -10.522): -0.8195 and -1.665 and -1.101 and -0.9521 and -0.1509 and -1.197
- Dose-response curves for asenapine vs endogenous trace amines ([2]; M = -11): -0.9075 and -0.3289 and -0.7295 and -0.3969 and 0.2136 and 0.9649
- Normalized Luminescence Counts for WT hTA1 ([2]; M = -11): -0.3969 and 0.2136 and 0.9649 and -0.9075 and -0.3289 and -0.7295
- Dose-response curves for asenapine vs endogenous trace amines ([2]; M = -11.522): -0.863 and -0.01735 and -1.531 and -0.9603 and -0.5377 and -0.4908
- Normalized Luminescence Counts for WT hTA1 ([2]; M = -11.522): -0.9603 and -0.5377 and -0.4908 and -0.863 and -0.01735 and -1.531
- Dose-response curves for asenapine vs endogenous trace amines ([2]; M = -12): -1.108 and -0.6405 and -1.286 and -1.101 and -0.6786 and -1.477
- Normalized Luminescence Counts for WT hTA1 ([2]; M = -12): -1.101 and -0.6786 and -1.477 and -1.108 and -0.6405 and -1.286
- Dose-response curves for asenapine vs endogenous trace amines ([2]; M = -12.522): -1.575 and -1.241 and -2.02 and -0.5377 and -1.054 and -1.242
- Normalized Luminescence Counts for WT hTA1 ([2]; M = -12.522): -0.5377 and -1.054 and -1.242 and -1.575 and -1.241 and -2.02
- EC50 ([2]; wt hTA1, HEK293T, n=3, read-out: EC50): 274 nM
- Emax values of Asenapine ([3]; T271N, Mean of one experiment): 142.994 and 100.859
- EC50 ([3]; T271N, Mean of one experiment, read-out: pEC50 values of Asenapine (converted)): 496 nM and 463 nM
- EC50 ([3]; T271N, n=2, read-out: EC50): 479 nM
- Emax ([3]; T271N, n=2, read-out: Span ± SEM (Emax normalized to β-PEA)): 122%
- Emax ([3]; T271N, relative to β-PEA, read-out: Emax): 122%
- ΔEmax values (each mutant value - WT average), T271N, Mean ([3]; hTA1 T271N mutant vs WT average, Figure 6B, each line is one experiment (3 replicates)): 54.2867 and 12.1519
- Normalized Luminescence Counts for Concentration Response Curves ([4]; M -7): 15.0486 and 28.2836 and 14.433 and 14.2815 and 11.35 and 10.6171 and 4.9397 and 9.4516 and 7.196
- Normalized Luminescence Counts for Concentration Response Curves ([4]; M -7.522): 3.6603 and 8.277 and 2.121 and 8.052 and 3.288 and 0.7233 and -1.828 and 2.684 and 1.556
- Normalized Luminescence Counts for Concentration Response Curves ([4]; M -8): 2.121 and 5.507 and 1.506 and 4.021 and -2.208 and 3.288 and -1.828 and -2.956 and -5.212
- Normalized Luminescence Counts for Concentration Response Curves ([4]; M -8.522): -2.188 and 0.2746 and -1.264 and -1.842 (2×) and -4.04 and -6.34 and -5.212 (2×)
- Normalized Luminescence Counts for Concentration Response Curves ([4]; M -9): -1.572 and -0.6488 and -1.264 and -5.506 and -1.109 and -5.873 and -4.0841 and -5.212 (2×)
- Normalized Luminescence Counts for Concentration Response Curves ([4]; M -9.522): -3.419 and -1.264 and -3.7267 and -3.674 and -1.109 and -6.239 and -5.212 (2×) and -4.0841
- Normalized Luminescence Counts for Concentration Response Curves ([4]; M -10): -2.496 and -2.188 and -2.803 and -2.575 and 2.189 and 2.922 and -4.0841 and -1.828 and -2.956
- Normalized Luminescence Counts for Concentration Response Curves ([4]; M -10.522): -1.88 (2×) and -1.264 and -6.605 (2×) and -3.307 and -1.828 (2×) and -0.7002
- Normalized Luminescence Counts for Concentration Response Curves ([4]; M -11): -2.188 and -1.88 and -2.496 and -2.575 and -5.506 and -7.705 and -6.34 and -4.0841 and -5.212
- Normalized Luminescence Counts for Concentration Response Curves ([4]; M -11.522): -2.188 and -1.264 (2×) and -1.475 and -4.773 and -4.407 and -4.0841 (2×) and -2.956
- Normalized Luminescence Counts for Concentration Response Curves ([4]; M -12): -3.111 and -2.496 and -2.188 and -5.873 and -5.14 and -2.941 and -1.828 and -2.956 and -4.0841
- Normalized Luminescence Counts for Concentration Response Curves ([4]; M -12.522): -3.7267
- Emax values of Asenapine ([4]; I290Y, Mean of one experiment): 56.131 and 42.2396
- Emax ([4]; I290Y, Mean of one experiment, read-out: Emax values of Asenapine): 54.9%
- EC50 ([4]; I290Y, Mean of one experiment, read-out: pEC50 values of Asenapine (converted)): 252 nM and 215 nM and 383 nM
- EC50 ([4]; I290Y, read-out: EC50): 275 nM
- Emax ([4]; I290Y, read-out: Span ± SEM (Emax normalized to β-PEA)): 51.1 ± 4.43%
- Emax ([4]; I290Y, relative to β-PEA, read-out: Emax): 51.1%
- ΔEmax values (each mutant value - WT average), I290Y, Mean ([4]; hTA1 I290Y mutant vs WT average, Figure 6B, each line is one experiment (3 replicates)): -33.855 and -32.5762 and -46.4677
- EC50 ([5]; read-out: EC50): 321 nM
- Emax [5, 7]: 77.1 ± 4.84%
- Emax values, Mean ([6]; Asenapine, per experiment, 3 replicates): 91.6842 and 105.217
- EC50 ([6]; Asenapine, per experiment, 3 replicates, read-out: pEC50 values Mean (converted)): 383 nM and 996 nM
- EC50 ([6]; n=2, read-out: EC50): 618 nM
- Emax ([6]; n=2, read-out: Span ± SEM (Emax normalized to β-PEA)): 98.5 ± 6.76%
